Literature values, collected in patent US20210251923A1, “METHODS FOR IMPROVING NEUROLOGICAL DISEASES AND DISORDERS” (CuraSen Therapeutics, Inc., priority 2018, published 2021).

System: Ts65Dn mice
Conditions: increasing brain NE levels

## N[C@H](C(=O)O)[C@H](O)c1ccc(O)c(O)c1 [L-DOPS, L-threo-3,4-dihydroxyphenylserine]
  contextual learning: restored contextual learning
